One test has as its target T1, hM2 muscarinic receptor (Homo sapiens, UniProt P08172).
T1 construct: gene CHRM2; full-length receptor stably expressed in CHO cells; human G16 transiently co-transfected for calcium assay
T1 sequence (P08172 1-466): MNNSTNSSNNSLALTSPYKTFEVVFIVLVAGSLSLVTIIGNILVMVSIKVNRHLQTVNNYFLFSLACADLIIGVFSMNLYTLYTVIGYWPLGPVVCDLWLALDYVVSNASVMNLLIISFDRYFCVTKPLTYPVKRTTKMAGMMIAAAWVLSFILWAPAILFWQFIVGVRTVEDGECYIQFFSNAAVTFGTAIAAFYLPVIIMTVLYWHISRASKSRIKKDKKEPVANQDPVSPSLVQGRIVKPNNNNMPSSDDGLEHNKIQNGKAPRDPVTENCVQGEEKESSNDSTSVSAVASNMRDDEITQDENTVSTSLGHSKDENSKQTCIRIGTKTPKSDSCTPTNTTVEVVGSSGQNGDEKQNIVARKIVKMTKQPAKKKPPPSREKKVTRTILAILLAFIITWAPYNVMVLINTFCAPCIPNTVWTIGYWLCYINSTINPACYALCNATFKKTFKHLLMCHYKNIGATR
Briefly: Fura-2 intracellular calcium microfluorometry, CHO cells. The format is cell-based. Conditions: read-out: oxotremorine / pEC50 (converted). The text has this:
Fura-2 intracellular calcium microfluorometry, CHO cells on hM2 muscarinic receptor

The target of another test is T2, hM5 muscarinic receptor (Homo sapiens, UniProt P08912).
T2 construct: gene CHRM5; full-length receptor stably expressed in CHO cells (Missouri S&T cDNA Resource Center)
T2 sequence (P08912 1-532): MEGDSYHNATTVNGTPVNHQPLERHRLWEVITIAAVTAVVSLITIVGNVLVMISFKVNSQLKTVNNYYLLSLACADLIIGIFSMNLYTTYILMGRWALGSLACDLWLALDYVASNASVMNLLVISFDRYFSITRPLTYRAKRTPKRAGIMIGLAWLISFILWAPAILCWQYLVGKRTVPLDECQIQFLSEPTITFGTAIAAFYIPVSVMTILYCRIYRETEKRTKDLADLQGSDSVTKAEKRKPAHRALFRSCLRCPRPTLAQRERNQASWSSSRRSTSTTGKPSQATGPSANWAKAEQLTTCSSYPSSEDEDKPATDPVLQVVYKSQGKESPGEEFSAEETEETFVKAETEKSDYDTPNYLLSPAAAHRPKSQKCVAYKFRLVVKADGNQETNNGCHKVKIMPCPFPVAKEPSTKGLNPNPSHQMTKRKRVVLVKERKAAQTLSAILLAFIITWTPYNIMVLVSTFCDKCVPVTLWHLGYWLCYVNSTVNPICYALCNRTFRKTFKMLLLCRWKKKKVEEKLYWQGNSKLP
The description is as above. In kind it is cell-based. Conditions: read-out: oxotremorine / pEC50 (converted). An excerpt:
Fura-2 intracellular calcium microfluorometry, CHO cells on hM5 muscarinic receptor

The target of a further test is T3, hM1 muscarinic receptor (Homo sapiens, UniProt P11229).
T3 construct: gene CHRM1
T3 sequence (P11229 1-460): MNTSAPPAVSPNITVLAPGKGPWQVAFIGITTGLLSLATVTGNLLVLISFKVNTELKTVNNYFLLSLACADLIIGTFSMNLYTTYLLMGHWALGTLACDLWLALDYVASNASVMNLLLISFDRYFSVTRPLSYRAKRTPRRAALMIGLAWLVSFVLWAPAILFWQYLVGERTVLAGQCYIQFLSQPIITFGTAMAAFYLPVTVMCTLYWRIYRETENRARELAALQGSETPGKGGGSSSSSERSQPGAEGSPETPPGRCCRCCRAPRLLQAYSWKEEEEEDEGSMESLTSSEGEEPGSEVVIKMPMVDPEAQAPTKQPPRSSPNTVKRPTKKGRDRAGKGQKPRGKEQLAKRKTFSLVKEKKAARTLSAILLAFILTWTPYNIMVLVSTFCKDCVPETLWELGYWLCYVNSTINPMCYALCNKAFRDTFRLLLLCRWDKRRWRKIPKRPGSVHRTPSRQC
Briefly: cell-based. An excerpt: Fura-2 intracellular calcium microfluorometry, CHO cells on hM1 muscarinic receptor

The next test has as its target T4, hM3 muscarinic receptor (Homo sapiens, UniProt P20309).
T4 construct: gene CHRM3; full-length receptor stably expressed in CHO cells (Missouri S&T cDNA Resource Center)
Briefly: Fura-2 intracellular calcium microfluorometry, CHO cells. In kind it is cell-based. Conditions: read-out: oxotremorine / pEC50 (converted). An excerpt:
Fura-2 intracellular calcium microfluorometry, CHO cells on hM3 muscarinic receptor
(A change in cytosolic calcium serves as a functional read-out for many receptors and channels.)

A further test concerns the target T5, hM4 muscarinic receptor (Homo sapiens, UniProt P08173).
T5 construct: gene CHRM4
T5 sequence (P08173 1-479): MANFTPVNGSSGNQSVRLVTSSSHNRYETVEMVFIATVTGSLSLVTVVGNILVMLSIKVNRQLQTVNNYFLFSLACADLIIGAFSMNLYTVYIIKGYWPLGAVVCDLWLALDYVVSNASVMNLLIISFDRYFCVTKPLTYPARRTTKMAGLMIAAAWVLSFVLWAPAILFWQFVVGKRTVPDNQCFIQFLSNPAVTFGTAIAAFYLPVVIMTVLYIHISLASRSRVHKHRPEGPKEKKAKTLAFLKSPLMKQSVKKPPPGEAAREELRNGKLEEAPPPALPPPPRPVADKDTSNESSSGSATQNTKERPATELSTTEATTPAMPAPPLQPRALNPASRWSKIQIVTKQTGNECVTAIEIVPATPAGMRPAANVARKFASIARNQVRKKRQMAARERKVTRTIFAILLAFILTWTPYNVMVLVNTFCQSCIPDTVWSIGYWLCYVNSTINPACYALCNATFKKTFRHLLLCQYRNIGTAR
The test can be described thus: cell-based.

T4 sequence (P20309 whole entry): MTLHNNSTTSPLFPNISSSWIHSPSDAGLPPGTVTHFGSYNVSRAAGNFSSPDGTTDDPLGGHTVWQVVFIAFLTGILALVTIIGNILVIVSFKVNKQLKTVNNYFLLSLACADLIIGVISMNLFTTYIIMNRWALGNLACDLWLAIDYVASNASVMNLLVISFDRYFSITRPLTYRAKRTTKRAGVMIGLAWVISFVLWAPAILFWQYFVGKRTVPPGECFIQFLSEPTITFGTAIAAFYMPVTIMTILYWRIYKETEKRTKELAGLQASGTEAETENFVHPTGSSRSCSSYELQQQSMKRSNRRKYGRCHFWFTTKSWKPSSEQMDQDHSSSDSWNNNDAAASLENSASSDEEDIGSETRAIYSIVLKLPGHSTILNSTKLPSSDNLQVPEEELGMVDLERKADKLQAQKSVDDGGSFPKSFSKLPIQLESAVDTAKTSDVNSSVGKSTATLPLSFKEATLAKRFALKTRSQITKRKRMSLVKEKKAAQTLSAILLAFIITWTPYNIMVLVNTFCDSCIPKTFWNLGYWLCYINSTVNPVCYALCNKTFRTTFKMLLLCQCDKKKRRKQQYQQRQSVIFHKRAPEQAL

For `O=C1CCCN1CC#CCN1CCCC1` [oxotremorine], the EC50 at hM2 muscarinic receptor is 64.6 nM; at hM5 muscarinic receptor, 51.3 nM; on hM1 muscarinic receptor it was 46.8 nM; on hM3 muscarinic receptor it was 46.8 nM; on hM4 muscarinic receptor, 67.6 nM.

The record behind these values is article PMC3928307, “Long-Term Activation upon Brief Exposure to Xanomleline Is Unique to M1 and M4 Subtypes of Muscarinic Acetylcholine Receptors” (PLoS ONE, 2014).
